From patent US9227935B2, “Piperidine/piperazine derivatives” (Janssen Pharmaceutica N.V., priority 2007, dated 2016)

Target: T1, human DGAT1 (Homo sapiens, UniProt O75907)
T1 construct: FLAG (N); made in house; host or cells: SF9 insect cells (baculovirus, pFastBac); total cell membranes used as the enzyme source
T1 sequence (O75907 1-488): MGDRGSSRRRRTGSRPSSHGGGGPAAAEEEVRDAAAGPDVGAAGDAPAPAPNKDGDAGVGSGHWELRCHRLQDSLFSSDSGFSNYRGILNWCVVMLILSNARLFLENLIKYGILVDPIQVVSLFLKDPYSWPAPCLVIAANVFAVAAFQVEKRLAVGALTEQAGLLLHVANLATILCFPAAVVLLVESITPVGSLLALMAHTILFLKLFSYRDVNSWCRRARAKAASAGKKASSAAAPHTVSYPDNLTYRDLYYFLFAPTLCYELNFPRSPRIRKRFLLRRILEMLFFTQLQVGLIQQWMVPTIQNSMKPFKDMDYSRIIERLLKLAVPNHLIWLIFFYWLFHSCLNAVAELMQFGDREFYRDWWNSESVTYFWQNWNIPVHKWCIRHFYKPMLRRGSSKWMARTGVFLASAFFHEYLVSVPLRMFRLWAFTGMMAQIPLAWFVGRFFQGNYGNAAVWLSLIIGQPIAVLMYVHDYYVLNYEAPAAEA
Test: DGAT1 FlashPlate inhibition assay with DGAT1 membrane preparations
Assay type: biochemical
Settings: IC50 values expressed in M; pIC50 = -logIC50; inhibition of DGAT1 activity
Excerpt: The inhibiting activity of the present compounds on DGAT1 activity was screened in a single well procedure assay using DGAT1 comprising membrane preparations and DGAT1 substrate comprising micelles and determining formed radio-active triacylglycerol coming in close proximity of a flashplate surface by radioluminescence.
Said assay is described in full detail in WO2006/067071, the content of which is incorporated herein by reference.
By DGAT1 activity is meant the transfer of coenzyme A activated fatty acids to the 3-position of 1,2-diacylglycerols, thus forming a triglyceride molecule, by enzyme DGAT1.
human DGAT1 (NM012079.2) was cloned into the pFastBac vector, containing translation start, a FLAG-tag at the N-terminus as described in literature and a viral Kozak sequence (AAX) preceding the ATG to improve expression in insect cells. Expression was done as described in literature (Cases, S., Smith, S. J., Zheng, Y., Myers H. M., Lear, S. R., Sande, E., Novak, S., Collins, C., Welch, C. B., Lusis, A. J., Erickson, S. K. and Farese, R. V. (1998) Proc. Natl. Acad. Sci. USA 95, 13018-13023.) using SF9 cells.
72 h transfected SF9 cells were collected by centrifugation (13000 rpm-15 min-4° C.) and lysed in 2×500 ml lysis buffer (0.1M Sucrose, 50 mM KCl, 40 mM KH2PO4, 30 mM EDTA pH 7.2. Cells were homogenized by cell disruptor. After centrifugation 1380 rpm-15 min-4° C. (SN discarded), pellet was resuspended in 500 ml lysis buffer and total cell membranes collected by ultracentrifugation at 34000 rpm (100 000 g) for 60 min (4° C.). The collected membranes were resuspended in lysis buffer, divided in aliquots and stored with 10% glycerol at −80° C. until use.
Add 1 ml dioleoyl-sn-glycerol (10 mg/ml) to 10 ml of L-α-phosphatidylcholine (1 mg/ml) and 10 ml of L-α-phosphatidyl-L-serine (1 mg/ml) in a thick glass recipient. Evaporate under nitrogen and put on ice for 15 minutes. Reconstitute in 10 ml Tris/HCl (10 mM, pH 7.4) by sonication on ice. The sonification process consists of sonification cycles of 10 seconds in the sonification bath followed by 10 seconds cool down on ice and repeating this sonification cycle till a homogeneous solution is obtained (takes about 15 minutes). The thus obtained micelles are stored at −20° C. till later use and contain DAG at a final concentration of 1.61 mM.
• 50 mM Tris-HCl (pH 7.4), 150 mM MgCl2, 1 mM EDTA, 0.2% BSA. b) N-ethylmaleimide, 5M • Dissolve 5 g into a final volume of 8 ml DMSO 100% and store at −20° C. in aliquots till later use. c) Substrate mix (for 1 384 well plate=3840 μl) • 612 μl micelles stock (51 μM final) • 16.6 μl oleoylCoA 9.7 mM • 23 μl [^3H]-oleoylCoA (49 Ci/mmol, 500 μCi/ml) • 3188.4 μl Tris pH 7.4, 10 mM d) Enzyme mix (for 1 384 well plate=3520 μl) (5 μg/ml) • Add 11.73 μl of DGAT membrane stock (1500 μg/ml stock) to 3508 μl assay buffer. e) Stop mix (for 1 384 well plate=7.68 ml) (250 mM) • Add 384 μl of N-ethylmaleimide (5M) to 3.456 ml DMSO 100%, and further dilute 3.84 ml of said solution with 3.84 ml DMSO 10%. Method
DGAT activity in membrane preparations was assayed in 50 mM Tris-HCl (pH 7.4), 150 mM MgCl2, 1 mM EDTA and 0.2% BSA, containing 50 μM DAG, […] PC/PS and 8.4 μM [^3H]-oleoylCoA (at a specific activity of 30 nCi/well) in a final volume of 50 μl in 384-well format using the red shifted Basic Image FlashPlate™ (Perkin Elmer Cat. No. SMP400).
In detail, 10 μl enzyme mix and 10 μl substrate mix were added to 30 μl of assay buffer, optionally in the presence of 1 μl DMSO (blank and controls) or 1 μl of the compound to be tested. This reaction mixture was incubated for 120 minutes at 37° C. and the enzymatic reaction stopped by adding 20 μl of the stop mix. The plates were sealed and the vesicles allowed to settle overnight at room temperature. Plates were centrifuged for 5 minutes at 1500 rpm and measured in Leadseeker. […]

| IC50 | SMILES |
| --- | --- |
| 269 nM | Cc1cc(C)c(NC(=O)N2CCC(c3ccc(NC(=O)c4ccccc4-c4ccc(C(F)(F)F)cc4)cc3)CC2)c(C)c1 [Compound 112] |
| 324 nM | Nc1ccccc1C(=O)Nc1ccc(C2CCN(C(=O)Nc3c(Cl)cccc3Cl)CC2)cc1 [Compound 10] |
| 1.74 nM | O=C(Nc1ccc(N2CCN(C(=O)Nc3c(Cl)cccc3Cl)CC2)cc1)c1cccc(N2CCCCC2)c1 [Compound 37] |
| 3550 nM | O=C(Nc1ccc(C2CCN(C(=O)Nc3c(Cl)cccc3Cl)CC2)cc1)C1CSCN1 (stereo not drawn) [Compound 48] |
| 380 nM | O=C(Nc1ccc(N2CCN(C(=O)Nc3c(Cl)cccc3Cl)CC2)cc1)c1ccccc1N1CCOCC1 [Compound 39] |
| 40.7 nM | CCc1nc(C)c(-c2ccccc2C(=O)Nc2ccc(N3CCN(C(=O)Nc4c(Cl)cccc4Cl)CC3)cc2)s1 [Compound 18] |
| 0.977 nM | O=C(Nc1ccc(N2CCN(C(=O)Nc3c(Cl)cccc3Cl)CC2)cc1)c1cccc(-c2ccco2)c1 [Compound 14] |
| 525 nM | O=C(Nc1ccc(N2CCN(C(=O)Nc3c(F)cc(F)cc3Br)CC2)cc1)c1ccccc1-c1ccc(C(F)(F)F)cc1 [Compound 96] |
| 17.4 nM | Cc1ccccc1-c1cccc(C(=O)Nc2ccc(C3CCN(C(=O)Nc4c(Cl)cccc4Cl)CC3)cc2)c1 [Compound 60] |
| 1380 nM | O=C(Nc1ccc(N2CCN(C(=O)Nc3ccccc3Br)CC2)cc1)c1ccccc1-c1ccc(C(F)(F)F)cc1 [Compound 88] |
| 6760 nM | CN(C)c1ccc(NC(=O)N2CC=C(c3ccc(NC(=O)c4ccccc4-c4ccc(C(F)(F)F)cc4)cc3)CC2)cc1 [Compound 124] |
| 295 nM | CC(C)(C)OC(=O)N1CSCC1C(=O)Nc1ccc(C2CCN(C(=O)Nc3c(Cl)cccc3Cl)CC2)cc1 (stereo not drawn) [Compound 50] |
| 7590 nM | O=C(Nc1ccc(N2CCN(C(=O)NCC3CCCCC3)CC2)cc1)c1ccccc1-c1ccc(C(F)(F)F)cc1 [Compound 5] |
| 3310 nM | O=C(Nc1ccc(N2CCN(C(=O)Nc3ccccc3Oc3ccccc3)CC2)cc1)c1ccccc1-c1ccc(C(F)(F)F)cc1 [Compound 105] |
| 4790 nM | CSc1ccccc1NC(=O)N1CCN(c2ccc(NC(=O)c3ccccc3-c3ccc(C(F)(F)F)cc3)cc2)CC1 [Compound 93] |
| 4680 nM | CCCNC(=O)N1CC=C(c2ccc(NC(=O)c3ccccc3-c3ccc(C(F)(F)F)cc3)cc2)CC1 [Compound 119] |
| 56.2 nM | O=C(Nc1ccc(N2CCN(C(=O)Nc3c(Cl)cccc3Cl)CC2)cc1)c1ccccc1-c1nc2ccccc2[nH]1 [Compound 45] |
| 117 nM | CC(C)(C)c1ccc(-c2ccccc2C(=O)Nc2ccc(N3CCN(C(=O)Nc4c(Cl)cccc4Cl)CC3)cc2)cc1 [Compound 35] |
| 1510 nM | O=C(Nc1ccc(N2CCN(C(=O)Nc3ccccc3I)CC2)cc1)c1ccccc1-c1ccc(C(F)(F)F)cc1 [Compound 91] |
| 12.9 nM | O=C(Nc1ccc(N2CCN(C(=O)Nc3c(Cl)cccc3Cl)CC2)cc1)c1ccc(-c2cnco2)cc1 [Compound 15] |
| 437 nM | O=C(Nc1ccc(N2CCN(C(=O)Nc3c(Cl)cccc3Cl)CC2)cc1)c1cccc(N2CCS(=O)(=O)CC2)c1 [Compound 43] |
| 2630 nM | O=C(Nc1ccc(N2CCN(C(=O)Nc3c(F)cc(Br)cc3F)CC2)cc1)c1ccccc1-c1ccc(C(F)(F)F)cc1 [Compound 98] |
| 1.35 nM | O=C(Nc1ccc(N2CCN(C(=O)Nc3c(Cl)cccc3Cl)CC2)cc1)c1cccc(N2CCCC2)c1 [Compound 12] |
| 1510 nM | O=C(Nc1ccc(C2=CCN(C(=O)NCCCc3ccccc3)CC2)cc1)c1ccccc1-c1ccc(C(F)(F)F)cc1 [Compound 122] |
| 7760 nM | CCOC(=O)c1ccc(NC(=O)N2CCN(c3ccc(NC(=O)c4ccccc4-c4ccc(C(F)(F)F)cc4)cc3)CC2)cc1 [Compound 72] |
| 112 nM | COC(=O)c1cccc(C(=O)Nc2ccc(N3CCN(C(=O)Cc4c(Cl)cc(CN5CCCC5)cc4Cl)CC3)cc2)c1 [Compound 145] |
| 11.5 nM | CCOC(=O)Cc1cccc(C(=O)Nc2ccc(N3CCN(C(=O)Nc4c(Cl)cc(CN5CCCCC5)cc4Cl)CC3)cc2)c1 [Compound 138] |
